# B1: BDNF: neurotrophic factor used as a positive control (protein, UniProt P23560 19-247, looked up)
# Neurotrophic factor BDNF …: APMKEANIRGQGGLAYPGVRTHGTLESVNGPKAGSRGLTSLADTFEHVIEELLDEDQKVRPNEENNKDADLYTSRVMLSSQVPLEPPLLFLLEEYKNYLDAANMSMRVRRHSDPARRGELSVCDSISEWVTAADKKTAVDMSGGTVTVLEKVPVSKGQLKQYFYETKCNPMGYTKEGCRGIDKRHWNSQCRTTQSYVRALTMDSKKRIGWRFIRIDTSCVCTLTIKRGR
# Key:
# [1] = tested on: motor neurons; assay: Induction of motor neuron cell death by glutamate toxicity (domoic acid); type: cell-based, rat; conditions: domoic acid at 10^-5 M, after 24 hours
# Method: Domoic acid at 10^−5M leads to loss of more than 50% of motor neurons after 24 hours (see is example), with even more dramatic effects after longer incubations.
# (§1) Rat motor neurons were isolated and purified as described in example 1 and cultured for 3 days in Neurobasal medium without neurotrophic factors (i.e. trophic factor withdrawal) in 4-well plates in the presence or absence of the test molecule. The neurotrophic factor BDNF is used as a positive control for all experiments. […] Motor neurons were grown for 3 days in vitro, then domoic acid at various concentrations was added and the number of surviving motor neurons was counted after 26 hours.
# [2] = tested on: Rat motor neurons; assay: Motor neuron survival on trophic factor withdrawal; type: cell-based; conditions: cultured 3 days in Neurobasal medium without neurotrophic factors, 4-well plates; FIG. 1
# Method: Spinal cords are dissected from day E14.5 sprague Dawley rat embryos (Camu et al., (1993) In: “Immunoselection Strategies for Neural Cell Culture”, Neuroprotocols: A companion to Methods in Neurosciences 2, 191-199). The dorsal part of the spinal cord is cut away, and the meninges removed. Each cord is cut into pieces using a scalpel and placed into 1 ml modified F10 medium (Ca2+, Mg2+-free, no glutamine or phenol red), with 0.025% trypsin, at 37° C. for 10 minutes. The fragments are transferred to 1 ml L15 containing 0.4% BSA and 0.1 mg/ml Dnase, and triturated using a blue (1 ml) tip. Cells are then spun through a BSA (4% w/v) cushion for 5 minutes at 480 g. The small cells are removed using a metrizamide (Serva) density gradient: 6.5% (w/v) metrizamide is placed under the cell suspension and centrifuged for 15 minutes at 860 g. The large motor neurons stay at the interface between the medium and the metrizamide, while the small cells (including non-neuronal cells) are pelleted. […]
# as §1, with “molecule.” for “molecule. The neurotrophic factor BDNF is used as a positive control for all experiments.”, “hours. […]” for “hours.”
# [3] = tested on: isolated neurons; assay: Low-density isolated neuron cultures (384-well plate) under growth factor privation, individual cell count; type: cell-based; conditions: growth factor privation to induce apoptosis, exclusion threshold below 300 μm^2, untreated well 18 neurons, FIG. 3A
# Source text: FIG. 3 represents two 9 mm^2-wells of a microtitration plate (384 wells) containing low-density cultures of isolated neurons according to this invention. The cultures were subjected to growth factor privation to induce apoptosis, and treated or not with BDNF. […] The exclusion threshold is below 300 μm^2.
molecule,measurement,setting,value
C/C(=C/C=C/[C@@H](C)C(=O)O)[C@H]1CN[C@H](C(=O)O)[C@H]1CC(=O)O [Domoic acid],loss of motor neurons,[1],more than 50%
CCCC(CCC)C(=O)[O-].[Na+] [sodium valproate],survival of motor neurons on trophic factor withdrawal,[2],enhances survival of motor neurons
(4-carboxyphenyloxyamino) butanoic acid,survival of motor neurons on trophic factor withdrawal,[2],no effect on motor neuron survival
B1,neurons present per 9 mm^2 well,[3],73 neurons

# From patent US6949354B2, “Methods for screening compounds active on neurons” (Trophos, priority 1999, dated 2005)
